From ChEMBL document CHEMBL1152463 (Antimicrob Agents Chemother, 2008)
In brackets after ≈: the same amount, converted by molar mass. Activity calls are given as the source filed them. The rule behind the calls is not given here.

What was measured:
Leishmania donovani [1] = test: Antileishmanial activity against Leishmania donovani MHOH/IN/1983/AD83 promastigotes assessed as inhibition of calcium uptake; assay type: functional, organism-based
Leishmania donovani [2] = test: Antileishmanial activity against Leishmania donovani MHOH/IN/1983/AD83 promastigotes assessed as increase in caspase 3 like activation in parasite cytosol at 3 to 30 ug/mL after 2 hrs by spectrofluorimetric analysis; assay type: functional, organism-based
Leishmania donovani [3] = test: Antileishmanial activity against Leishmania donovani MHOH/IN/1983/AD83 amastigotes infected in BALB/c mouse peritoneal macrophage at 3 ug/mL treated 6 hrs after infection measured after 48 hrs using Giemsa staining relative to control; assay type: functional
Mus musculus [4] = test: Toxicity in BALB/c mouse assessed as heart function at 10 mg/kg, po; assay type: organism-based; set-up: dose 10 mg/kg, route oral; settings: in vivo
[5] = Toxicity in BALB/c mouse peritoneal macrophage assessed as toxic dose; assay type: cell-based; settings: peritoneal macrophage cell
Leishmania donovani [6] = test: Antileishmanial activity against Leishmania donovani MHOH/IN/1983/AD83 amastigotes infected in BALB/c mouse peritoneal macrophage treated 6 hrs after infection measured after 48 hrs using Giemsa staining relative to control; assay type: functional, organism-based
Leishmania donovani [7] = test: Antileishmanial activity against Leishmania donovani MHOH/IN/1983/AD83 promastigotes assessed as viability after 2 hrs by MTT assay; assay type: functional, organism-based; settings: MHOH/IN/1983/AD83, 2 h
Leishmania donovani [8] = test: Antileishmanial activity against Leishmania donovani MHOH/IN/1983/AD83 promastigotes assessed as cell killing at 30 ug/mL after 2 hrs by MTT assay relative to control; assay type: functional
Mus musculus [9] = test: Toxicity in BALB/c mouse at 10 mg/kg, po; assay type: organism-based; set-up: dose 10 mg/kg, route oral; settings: in vivo
Mus musculus [10] = test: Toxicity in BALB/c mouse assessed as liver function at 10 mg/kg, po; assay type: organism-based; set-up: dose 10 mg/kg, route oral; settings: in vivo
Leishmania donovani [11] = test: Antileishmanial activity against Leishmania donovani MHOH/IN/1983/AD83 amastigotes infected in BALB/c mouse peritoneal macrophage assessed as cell killing at 15 ug/mL treated 6 hrs after infection measured after 48 hrs using Giemsa staining relative to control; assay type: functional
Leishmania donovani [12] = test: Antileishmanial activity against Leishmania donovani MHOH/IN/1983/AD83 promastigotes assessed as growth inhibition after 3 days by MTT assay; assay type: functional, organism-based; settings: MHOH/IN/1983/AD83, 72 h
Mus musculus [13] = test: Toxicity in BALB/c mouse assessed as kidney function at 10 mg/kg, po; assay type: organism-based; set-up: dose 10 mg/kg, route oral; settings: in vivo
Leishmania donovani [14] = test: Antileishmanial activity against Leishmania donovani MHOH/IN/1983/AD83 promastigotes assessed as decrease in rate of oxygen consumption at 30 ug/mL after 2 hrs by polarographically with Clark electrode; assay type: functional; set-up: scale not given: the % may be the effect or the level left

Structure (SMILES) | Activity (Leishmania donovani [1]) | Activity (Leishmania donovani [2]) | Activity (Leishmania donovani [3]) [%] | Activity (Mus musculus [4]) | Activity [5] [µg/mL] | Activity (Leishmania donovani [6]) | IC50 (Leishmania donovani [6]) [µg/mL] | EC50 (Leishmania donovani [7]) [µg/mL] | Activity (Leishmania donovani [8]) [%] | Activity (Mus musculus [9]) | Activity (Mus musculus [10]) | Activity (Leishmania donovani [11]) [%] | IC50 (Leishmania donovani [12]) [µg/mL] | Activity (Mus musculus [13]) | Activity (Leishmania donovani [14]) [%]
COc1ccc(CCN(C)CCCC(C#N)(c2ccc(OC)c(OC)c2)C(C)C)cc1OC (stereo unspecified) | Active | – | – | – | – | – | – | – | – | – | – | – | – | – | –
COc1ccc([C@@H]2Sc3ccccc3N(CCN(C)C)C(=O)[C@@H]2OC(C)=O)cc1 | Active | – | – | – | – | – | – | – | – | – | – | – | – | – | –
CCOC(=O)C1=C(COCCN)NC(C)=C(C(=O)OC)C1c1ccccc1Cl (stereo unspecified) [AMLODIPINE] | Active | Active | >50 | Non-toxic | > 100 | Dose-dependent effect | 2.1 (≈ 5.14 µM) | 2 (≈ 4.89 µM) | 98.76 | Non-toxic | Non-toxic | 96.39 | 0.085 (≈ 0.208 µM) | Non-toxic | –
CCOC(=O)C1=C(C)NC(C)=C(C(=O)OCC)C1c1ccccc1/C=C/C(=O)OC(C)(C)C [LACIDIPINE] | Active | Active | >50 | Non-toxic | 150 | Dose-dependent effect | 2.8 (≈ 6.15 µM) | 2.5 (≈ 5.49 µM) | 90.5 | Non-toxic | Non-toxic | 85.66 | 1.45 (≈ 3.18 µM) | Non-toxic | 78
